Results as given in patent US20100298141A1, “SUBSTITUTED PYRIDINE N-OXIDE HERBICIDES” (E. I. DU PONT DE NEMOURS AND COMPANY, priority 2007, published 2010).

Experiments:
corn (ZEAMD) [1] = experiment: Test I preemergence mixtures of compound 2 with crop safeners; format: in vivo, Zea mays cv. ‘Pioneer 33G26’; conditions: alone
Description: (§1) Seeds of test plants consisting of winter wheat (TRZAW, Triticum aestivum), corn (ZEAMD, Zea mays cv. ‘Pioneer 33G26’), wild oat (AVEFA, Avena fatua), and Italian ryegrass (LOLMU, Lolium multiflorum) were planted into a blend of loam soil and sand and treated preemergence with a directed soil spray using test chemicals formulated in a non-phytotoxic solvent mixture that included a surfactant. Seeds of small-seeded species were planted about 1 cm deep; larger seeds were planted about 2.5 cm deep. […] Balanced fertilizer was applied through the watering system. Treatments consisted of Compound 2 and the above mentioned safeners alone and in combination using a spray volume of 457 L/ha. Each treatment was replicated four times. Treated plants and controls were maintained in a greenhouse for 14 to 21 days, after which time all species were compared to controls and visually evaluated. […] A dash (-) response means no test result. Colby's Equation was used to determine the herbicidal effects expected from the mixtures. Colby's Equation (Colby, S. […] Pa+b=Pa+Pb−(PaPb/100) wherein • Pa+b is the percentage effect of the mixture expected from additive contribution of the individual components, • Pa is the observed percentage effect of the first active ingredient at the same use rate as in the mixture, and • Pb is the observed percentage effect of the second active ingredient at the same use rate as in the mixture.

corn (ZEAMD) [2] = experiment: Test J preemergence mixtures of Compound 2 with crop safeners; format: in vivo, Zea mays cv. ‘Pioneer 33G26’; set-up: key to ZEAMD Obsd. (observed effect): observed % herbicidal effect; conditions: for ZEAMD Obsd. (observed effect): Test J, alone
Description: (§2) Seeds of test plants consisting of winter wheat (TRZAW, Triticum aestivum) and corn (ZEAMD, Zea mays cv. ‘Pioneer 33G26’) were planted into a blend of loam soil and sand and treated preemergence with a directed soil spray using test chemicals formulated in a non-phytotoxic solvent mixture that included a surfactant. […] Balanced fertilizer was applied through the watering system. Treatments consisted of Compound 2 and the above mentioned safeners alone and in combination using a spray volume of 457 L/ha. Each treatment was replicated four times. […] A dash (-) response means no test result. Colby's Equation was used to determine the herbicidal effects expected from the mixtures. Colby's Equation (Colby, S. […] wherein • Pa+b is the percentage effect of the mixture expected from additive contribution of the individual components, • Pa is the observed percentage effect of the first active ingredient at the same use rate as in the mixture, and Pb is the observed percentage effect of the second active ingredient at the same use rate as in the mixture.

Italian ryegrass (LOLMU) [3] = experiment: Test I preemergence mixtures of compound 2 with crop safeners; format: in vivo, Lolium multiflorum; conditions: alone
Description: as §1

winter wheat (TRZAW) [4] = experiment: as above; format: in vivo, Triticum aestivum; conditions: alone
Description: as §1

winter wheat (TRZAW) [5] = experiment: Test H preemergence mixtures of compound 2 with crop safeners; format: in vivo, Triticum aestivum; set-up: key to TRZAW Obsd. (observed effect): observed % effect, visually evaluated vs controls; conditions: Test H, alone
Description: (§3) Seeds of test plants consisting of winter wheat (TRZAW, Triticum aestivum), corn (ZEAMD, Zea mays cv. ‘Pioneer 33G26’), giant foxtail (SETFA, Setaria faberi), and Italian ryegrass (LOLMU, Lolium multiflorum) were planted into a blend of loam soil and sand and treated preemergence with a directed soil spray using test chemicals formulated in a non-phytotoxic solvent mixture that included a surfactant. Seeds of small-seeded species were planted about 1 cm deep; larger seeds were planted about 2.5 cm deep. […] Balanced fertilizer was applied through the watering system. Treatments consisted of Compound 2 and the above mentioned safeners alone and in combination using a spray volume of 457 L/ha. Each treatment was replicated four times. Treated plants and controls were maintained in a greenhouse for 14 to 21 days, after which time all species were compared to controls and visually evaluated. […] A dash (-) response means no test result. Colby's Equation was used to determine the herbicidal effects expected from the mixtures. Colby's Equation (Colby, S. […] wherein • Pa+b is the percentage effect of the mixture expected from additive contribution of the individual components, • Pa is the observed percentage effect of the first active ingredient at the same use rate as in the mixture, and • Pb is the observed percentage effect of the second active ingredient at the same use rate as in the mixture.

Italian ryegrass (LOLMU) [6] = experiment: as above; format: in vivo, Lolium multiflorum; set-up: key to LOLMU Obsd. (observed effect): observed % effect, visually evaluated vs controls; conditions: Test H, alone
Description: as §3

winter wheat (TRZAW) [7] = experiment: Test J preemergence mixtures of Compound 2 with crop safeners; format: in vivo, Triticum aestivum; set-up: key to TRZAW Obsd. (observed effect): observed % herbicidal effect; conditions: for TRZAW Obsd. (observed effect): Test J, alone
Description: as §2

giant foxtail (SETFA) = experiment: Test H preemergence mixtures of compound 2 with crop safeners; format: in vivo, Setaria faberi; set-up: key to SETFA Obsd. (observed effect): observed % effect, visually evaluated vs controls; conditions: Test H, alone
Description: as §3

corn (ZEAMD) [8] = experiment: as above; format: in vivo, Zea mays cv. ‘Pioneer 33G26’; set-up: key to ZEAMD Obsd. (observed effect): observed % effect, visually evaluated vs controls; conditions: Test H, alone
Description: as §3

wild oat (AVEFA) = experiment: Test I preemergence mixtures of compound 2 with crop safeners; format: in vivo, Avena fatua; conditions: alone
Description: as §1

SMILES	ZEAMD Obsd. (observed effect) (corn (ZEAMD) [1]; 4 g a.i./ha)	ZEAMD Obsd. (observed effect) (corn (ZEAMD) [1]; 8 g a.i./ha)	LOLMU Obsd. (observed effect) (Italian ryegrass (LOLMU) [3]; 4 g a.i./ha)	LOLMU Obsd. (observed effect) (Italian ryegrass (LOLMU) [3]; 8 g a.i./ha)	TRZAW Obsd. (observed effect) (winter wheat (TRZAW) [4]; 4 g a.i./ha)	TRZAW Obsd. (observed effect) (winter wheat (TRZAW) [4]; 8 g a.i./ha)	TRZAW Obsd. (observed effect) (winter wheat (TRZAW) [5]; 8 g a.i./ha)	TRZAW Obsd. (observed effect) (winter wheat (TRZAW) [5]; 16 g a.i./ha)	TRZAW Obsd. (observed effect) (winter wheat (TRZAW) [5]; 31 g a.i./ha)	LOLMU Obsd. (observed effect) (Italian ryegrass (LOLMU) [6]; 8 g a.i./ha)	LOLMU Obsd. (observed effect) (Italian ryegrass (LOLMU) [6]; 16 g a.i./ha)	LOLMU Obsd. (observed effect) (Italian ryegrass (LOLMU) [6]; 31 g a.i./ha)	SETFA Obsd. (observed effect) (giant foxtail (SETFA); 8 g a.i./ha)	SETFA Obsd. (observed effect) (giant foxtail (SETFA); 16 g a.i./ha)	SETFA Obsd. (observed effect) (giant foxtail (SETFA); 31 g a.i./ha)	ZEAMD Obsd. (observed effect) (corn (ZEAMD) [8]; 8 g a.i./ha)	ZEAMD Obsd. (observed effect) (corn (ZEAMD) [8]; 16 g a.i./ha)	ZEAMD Obsd. (observed effect) (corn (ZEAMD) [8]; 31 g a.i./ha)	AVEFA Obsd. (observed effect) (wild oat (AVEFA); 4 g a.i./ha)	AVEFA Obsd. (observed effect) (wild oat (AVEFA); 8 g a.i./ha)	also measured
CCOC(=O)C1=NOC(c2ccccc2)(c2ccccc2)C1 [isoxadifen-ethyl]	0	0	0	0	0	0	0	0	0	0	0	0	0	0	3	0	0	0	0	0	Observed effect (Obsd.), ZEAMD (corn (ZEAMD) [2]; safener alone at 8 g a.i./ha): 0%; Observed effect (Obsd.), ZEAMD (corn (ZEAMD) [2]; safener alone at 31 g a.i./ha): 0%; Observed effect (Obsd.), ZEAMD (corn (ZEAMD) [2]; safener alone at 500 g a.i./ha): 0%; Observed effect (Obsd.), ZEAMD (corn (ZEAMD) [2]; single active ingredient alone at 125 g a.i./ha): 0%; Observed effect (Obsd.), TRZAW (winter wheat (TRZAW) [7]; safener alone at 8 g a.i./ha): 0%; Observed effect (Obsd.), TRZAW (winter wheat (TRZAW) [7]; safener alone at 31 g a.i./ha): 0%; Observed effect (Obsd.), TRZAW (winter wheat (TRZAW) [7]; safener alone at 500 g a.i./ha): 0%
C=CCN(CC=C)C(=O)C(Cl)Cl [dichlormid]	0	0	0	0	0	0	0	0	0	0	0	0	0	0	3	0	0	0	0	0	Observed effect (Obsd.), ZEAMD (corn (ZEAMD) [2]; safener alone at 8 g a.i./ha): 0%; Observed effect (Obsd.), ZEAMD (corn (ZEAMD) [2]; safener alone at 31 g a.i./ha): 0%; Observed effect (Obsd.), ZEAMD (corn (ZEAMD) [2]; safener alone at 500 g a.i./ha): 0%; Observed effect (Obsd.), TRZAW (winter wheat (TRZAW) [7]; safener alone at 8 g a.i./ha): 0%; Observed effect (Obsd.), TRZAW (winter wheat (TRZAW) [7]; safener alone at 31 g a.i./ha): 0%
CC(C)(C)c1ccc(C(=O)O)cc1 [4-t-butyl benzoic acid]																					ZEAMD Obsd. (observed effect) (corn (ZEAMD) [2]; 8 g a.i./ha): 0; ZEAMD Obsd. (observed effect) (corn (ZEAMD) [2]; 31 g a.i./ha): 0; ZEAMD Obsd. (observed effect) (corn (ZEAMD) [2]; 125 g a.i./ha): 0; ZEAMD Obsd. (observed effect) (corn (ZEAMD) [2]; 500 g a.i./ha): 0; TRZAW Obsd. (observed effect) (winter wheat (TRZAW) [7]; 8 g a.i./ha): 0; TRZAW Obsd. (observed effect) (winter wheat (TRZAW) [7]; 31 g a.i./ha): 0; TRZAW Obsd. (observed effect) (winter wheat (TRZAW) [7]; 125 g a.i./ha): 0; TRZAW Obsd. (observed effect) (winter wheat (TRZAW) [7]; 500 g a.i./ha): 0
CC1COc2ccccc2N1C(=O)C(Cl)Cl (stereo not shown) [benoxacor]	0	0	0	0	0	0	0	0	0	0	0	0	0	3	0	0	0	0	0	0	ZEAMD Obsd. (observed effect) (corn (ZEAMD) [2]; 8 g a.i./ha): 0; ZEAMD Obsd. (observed effect) (corn (ZEAMD) [2]; 31 g a.i./ha): 0; ZEAMD Obsd. (observed effect) (corn (ZEAMD) [2]; 125 g a.i./ha): 0; ZEAMD Obsd. (observed effect) (corn (ZEAMD) [2]; 500 g a.i./ha): 0; TRZAW Obsd. (observed effect) (winter wheat (TRZAW) [7]; 8 g a.i./ha): 0; TRZAW Obsd. (observed effect) (winter wheat (TRZAW) [7]; 31 g a.i./ha): 0; TRZAW Obsd. (observed effect) (winter wheat (TRZAW) [7]; 125 g a.i./ha): 0; TRZAW Obsd. (observed effect) (winter wheat (TRZAW) [7]; 500 g a.i./ha): 0
